The values that follow come from US11332443B2, “Derivatives of halo quinabactin” (THE REGENTS OF THE UNIVERSITY OF CALIFORNIA, priority 2015, dated 2022).

Assay type in all cases: biochemical
The target of assay [1] is T1, PYR1-HAB1 (Arabidopsis thaliana, UniProt O49686).
T1 construct: 6xHis (N); made in house; host or cells: E. coli BL21[DE3]pLysS (stated for GST-HAB1)
T1 sequence (O49686 1-191): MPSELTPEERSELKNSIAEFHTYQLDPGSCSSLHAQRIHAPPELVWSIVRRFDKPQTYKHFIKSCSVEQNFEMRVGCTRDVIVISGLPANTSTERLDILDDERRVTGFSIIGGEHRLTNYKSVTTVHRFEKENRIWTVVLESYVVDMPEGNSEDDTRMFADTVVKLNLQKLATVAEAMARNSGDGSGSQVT
T1 sequence (Q9CAJ0 23-511 partner): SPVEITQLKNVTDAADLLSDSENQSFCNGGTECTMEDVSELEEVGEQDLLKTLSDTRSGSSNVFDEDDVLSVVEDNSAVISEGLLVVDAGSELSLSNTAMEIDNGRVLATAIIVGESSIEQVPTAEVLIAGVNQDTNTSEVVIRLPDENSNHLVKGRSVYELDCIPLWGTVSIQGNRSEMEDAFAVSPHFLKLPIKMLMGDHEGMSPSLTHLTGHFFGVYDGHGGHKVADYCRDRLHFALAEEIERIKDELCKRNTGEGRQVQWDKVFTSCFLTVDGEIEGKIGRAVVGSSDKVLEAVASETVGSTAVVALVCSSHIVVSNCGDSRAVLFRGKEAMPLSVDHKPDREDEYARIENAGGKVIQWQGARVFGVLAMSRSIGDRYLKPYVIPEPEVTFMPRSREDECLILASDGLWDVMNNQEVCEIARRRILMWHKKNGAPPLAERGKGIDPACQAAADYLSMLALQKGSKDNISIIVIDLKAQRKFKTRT
The assay is described as follows: PP2C activity assay, PYR1-HAB1 inhibition. To be noted: for activity at 0.2 µM: 200 nM test compound, 100 nM HAB1 PP2C, 200 nM receptor, read-out: % Inhibition of PYR/PYL-HAB1 at 200 nM: PYR1; for IC50: dose response in triplicate, non-linear regression. From the text:
(§1) The protein HAB1, a type 2 protein phosphatase (PP2C), is inhibited by PYR/PYL proteins in dependence of abscisic acid or other agonists. The potency of an agonist correlates with the level of inhibition of the PP2C, and therefore the IC50 (receptor-HAB1) can be used to compare the relative activity of different chemical analogues. Since inhibition of PP2C correlates to inhibition of seed-germination and increase in plant water-use efficiency, it serves as a powerful tool to quantify biological potential of a chemical acting as an analogue of abscisic acid.
(§2) HAB1 and PYL proteins were expressed and purified as described in Park et al. ((2009) Science 324(5930):1068-1071), with minor modifications. GST-HAB1 was produced by expression in BL21[DE3]pLysS host cells with an expression clone containing the HAB1 cDNA cloned into pGex-2T. Transformed E. coli cells were pre-cultured overnight, transferred to LB medium and cultured at 30° C. to culture A600 of ˜0.5 OD units. The culture was then cooled on ice and MnCl2 added to 4 mM and IPTG added to 0.3 mM. After 16 hours incubation at 15° C., cells were harvested and recombinant proteins were purified on glutathione agarose as described in Park et al. To obtain 6×His-PYL receptor fusion proteins, we used expression constructs previously described by Okamoto et al. 2013, (PNAS 110(29): 12132-12137).
(§3) PP2C activity assays using recombinant receptors and PP2Cs were carried out as follows: purified proteins were pre-incubated in 160 μl assay buffer containing (100 mM Tris-HCl-pH7.9, 100 mM NaCl, 3 μg bovine serum albumin and 0.1% 2-mercaptoethanol), 1 mM MnCl2 with carrier solvent (DMSO), quinabactin or quinabactin analogs (compounds of the present invention) for 30 minutes at room temperature. Reactions were started by adding 40 μL of a reaction solution containing 25 mM 4-nitrophenyl phosphate in assay buffer, after which absorbance measurements were immediately collected (405 nm) using a Wallac plate reader. […] Inhibition is indicated by reduced PP2C activity, which is expressed as a percentage of the control PP2C activity values that were obtained from assays containing carrier solvent instead but no test compound.

Assay [2] addresses T2, PYL2-HAB1 (Arabidopsis thaliana, UniProt O80992).
T2 construct: 6xHis (N); made in house; host or cells: E. coli BL21[DE3]pLysS (stated for GST-HAB1)
T2 sequence (O80992 1-190): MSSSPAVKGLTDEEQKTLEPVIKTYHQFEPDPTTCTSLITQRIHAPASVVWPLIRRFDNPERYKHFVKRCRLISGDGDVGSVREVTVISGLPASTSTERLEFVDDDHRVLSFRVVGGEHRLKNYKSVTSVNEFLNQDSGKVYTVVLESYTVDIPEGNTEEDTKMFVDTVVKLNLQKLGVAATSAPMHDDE
T2 sequence (Q9CAJ0 23-511 partner): T1 sequence (Q9CAJ0 23-511 partner)
Kind of assay: PP2C activity assay, PYL2-HAB1 inhibition. The following applies: for percent inhibition at 0.2 µM: 200 nM test compound, 100 nM HAB1 PP2C, 200 nM receptor, read-out: % Inhibition of PYR/PYL-HAB1 at 200 nM: PYL2; for IC50: dose response in triplicate, non-linear regression.
Excerpt: as §1, §2, §3

For assay [3], the target named is T3, PYL1-HAB1 (Arabidopsis thaliana, UniProt Q8VZS8).
T3 construct: 6xHis (N); made in house; host or cells: E. coli BL21[DE3]pLysS (stated for GST-HAB1)
T3 sequence (Q8VZS8 1-221): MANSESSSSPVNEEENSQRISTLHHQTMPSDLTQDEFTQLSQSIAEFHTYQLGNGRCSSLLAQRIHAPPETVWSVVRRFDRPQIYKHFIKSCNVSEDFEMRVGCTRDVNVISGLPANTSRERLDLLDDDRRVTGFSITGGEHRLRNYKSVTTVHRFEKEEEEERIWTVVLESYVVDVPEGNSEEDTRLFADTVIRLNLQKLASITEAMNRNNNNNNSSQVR
T3 sequence (Q9CAJ0 23-511 partner): T1 sequence (Q9CAJ0 23-511 partner)
The assay is described as follows: PP2C activity assay, PYL1-HAB1 inhibition. To be noted: 200 nM test compound, 100 nM HAB1 PP2C, 200 nM receptor; read-out: % Inhibition of PYR/PYL-HAB1 at 200 nM: PYL1.
Excerpt: as §1, §2
PP2C activity assays using recombinant receptors and PP2Cs were carried out as follows: purified proteins were pre-incubated in 160 μl assay buffer containing (100 mM Tris-HCl-pH7.9, 100 mM NaCl, 3 μg bovine serum albumin and 0.1% 2-mercaptoethanol), 1 mM MnCl2 with carrier solvent (DMSO), quinabactin or quinabactin analogs (compounds of the present invention) for 30 minutes at room temperature. Reactions were started by adding 40 μL of a reaction solution containing 25 mM 4-nitrophenyl phosphate in assay buffer, after which absorbance measurements were immediately collected (405 nm) using a Wallac plate reader. Reactions contained 100 nM HAB1 PP2C and 200 nM receptor and 200 nM test compound. Inhibition is indicated by reduced PP2C activity, which is expressed as a percentage of the control PP2C activity values that were obtained from assays containing carrier solvent instead but no test compound.

For `CCCN1C(=O)CCc2cc(NS(=O)(=O)Cc3ccccc3F)cc(F)c21` [HQ3], the activity at 0.2 µM in assay [1] turned out to be 65.7%; in assay [3] it was 46.7%. In addition, the percent inhibition at 0.2 µM in assay [2] was determined as 78.3%.

As for `CCCN1C(=O)CCc2cc(NS(=O)(=O)Cc3ccc(F)cc3F)cc(F)c21` [HQ4], the activity at 0.2 µM in assay [1] came to 61.5%; in assay [3], 46.1%. For the same compound, the percent inhibition at 0.2 µM in assay [2] turned out to be 69.3%.

On to `CCCN1C(=O)CCc2cc(NS(=O)(=O)Cc3ccc(Br)cc3F)cc(F)c21` [HQ5], for which the activity at 0.2 µM in assay [1] worked out at 42.9%; in assay [3], 18.2%. In addition, the percent inhibition at 0.2 µM in assay [2] came to 51.8%.

For `CCCN1C(=O)CCc2cc(NS(=O)(=O)Cc3cc(F)ccc3F)cc(F)c21` [HQ6], the activity at 0.2 µM in assay [1] worked out at 57.9%; in assay [3], 35.1%. The percent inhibition at 0.2 µM in assay [2] worked out at 57.4%.

For `CCCN1C(=O)CCc2cc(NS(=O)(=O)Cc3cccc(F)c3F)cc(F)c21` [HQ7], the activity at 0.2 µM in assay [1] was 53.9%; in assay [3], 31%. Also, in assay [2], the percent inhibition at 0.2 µM was 67.4%.

Consider `CCCN1C(=O)CCc2cc(NS(=O)(=O)Cc3ccc(F)cc3Br)cc(F)c21` [HQ8], for which the activity at 0.2 µM in assay [1] was found to be 107%; in assay [3], 87.4%. The percent inhibition at 0.2 µM in assay [2] is 92%.

On to `CCCN1C(=O)CCc2cc(NS(=O)(=O)Cc3ccc(Cl)cc3Br)cc(F)c21` [HQ9], for which the activity at 0.2 µM was 105% in assay [1] and 86.9% in assay [3]. The percent inhibition at 0.2 µM in assay [2] came to 92.2%.

`CCCN1C(=O)CCc2cc(NS(=O)(=O)Cc3ccc(C#N)cc3)cc(F)c21` [HQ10]: the activity at 0.2 µM in assay [1] was determined as 39.8%; in assay [3] it was 44.3%. In assay [2], the percent inhibition at 0.2 µM turned out to be 77.2%.

For orientation: IC50 means the concentration at which inhibition is half-maximal. Higher therefore signals weaker potency in that assay. Regarding `CCCN1C(=O)CCc2cc(NS(=O)(=O)Cc3ccc(C#N)cc3F)cc(F)c21` [HQ11], in assay [1], the activity at 0.2 µM came out at 28.8% and it took 61.2 nM to reach half-maximal inhibition (IC50). In assay [2], the percent inhibition at 0.2 µM was 73.5% and the concentration for half-maximal inhibition (IC50) is 317 nM. Also, the activity at 0.2 µM in assay [3] worked out at 27.9%.

In the case of `CCCN1C(=O)CCc2cc(NS(=O)(=O)Cc3ccccc3C#N)cc(F)c21` [HQ12], the results for the activity at 0.2 µM in assay [1] and in assay [3] were 106% and 82.4%, respectively. The percent inhibition at 0.2 µM in assay [2] worked out at 94.5%.

Take `CCCN1C(=O)CCc2cc(NS(=O)(=O)Cc3ccc(F)cc3Cl)cc(F)c21` [HQ13]: the activity at 0.2 µM in assay [1] is 110%; in assay [3] it was 88.2%. Further, the percent inhibition at 0.2 µM in assay [2] was 94.1%.

Regarding `CCCN1C(=O)CCc2cc(NS(=O)(=O)Cc3ccc(C(=O)OC)cc3)cc(F)c21` [HQ14], the activity at 0.2 µM in assay [1] was determined as 62.6%; in assay [3] it was 78.9%. In addition, the percent inhibition at 0.2 µM in assay [2] was 91.8%.

With `CCCN1C(=O)CCc2cc(NS(=O)(=O)Cc3ccc(OC(F)(F)F)cc3)cc(F)c21` [HQ15], the activity at 0.2 µM in assay [1] is 54.8%; in assay [3] it was 47.6%. Moreover, the percent inhibition at 0.2 µM in assay [2] was 70.1%.

Take `CCCN1C(=O)CCc2cc(NS(=O)(=O)Cc3ccc(C(F)(F)F)cc3)cc(F)c21` [HQ16]: the results for the activity at 0.2 µM in assay [1] and in assay [3] were 52% and 38.5%, respectively. For the same compound, the percent inhibition at 0.2 µM in assay [2] was found to be 53.9%.

With `CCCN1C(=O)CCc2cc(NS(=O)(=O)Cc3cccc(C(F)(F)F)c3)cc(F)c21` [HQ17], the activity at 0.2 µM is 104% in assay [1] and 88.1% in assay [3]. Further, in assay [2], the percent inhibition at 0.2 µM stood at 88.2%.

Turning to `CCCN1C(=O)CCc2cc(NS(=O)(=O)Cc3ccc(Cl)cc3)cc(F)c21` [HQ18], in assay [1], the activity at 0.2 µM was found to be 35% and the half-inhibitory concentration (IC50) amounted to 63.3 nM. Besides, in assay [2], the percent inhibition at 0.2 µM came to 46.7% and half-maximal inhibition (IC50) required 102 nM. Besides, in assay [3], the activity at 0.2 µM was found to be 34.2%.

In the case of `CCCN1C(=O)CCc2cc(NS(=O)(=O)Cc3ccc(C(F)(F)F)nc3)cc(F)c21` [HQ19], the results for the activity at 0.2 µM in assay [1] and in assay [3] were 82.7% and 73.4%, respectively. For the same compound, in assay [2], the percent inhibition at 0.2 µM was found to be 82.3%.
